tested on: Protein cereblon/Androgen receptor (Homo sapiens), P10275+Q96SW2 [UNDEFINED MUTATION]; assay: PROTAC activity at AR-V7/CRBN in human 22Rv1 cells assessed as induction of AR-V7 degradation at 5 uM incubated for 24 hrs by Western blot analysis relative to control; assay type: cell-based; settings: CWR22R
Sequence (P10275 whole entry, looked up, change not shown): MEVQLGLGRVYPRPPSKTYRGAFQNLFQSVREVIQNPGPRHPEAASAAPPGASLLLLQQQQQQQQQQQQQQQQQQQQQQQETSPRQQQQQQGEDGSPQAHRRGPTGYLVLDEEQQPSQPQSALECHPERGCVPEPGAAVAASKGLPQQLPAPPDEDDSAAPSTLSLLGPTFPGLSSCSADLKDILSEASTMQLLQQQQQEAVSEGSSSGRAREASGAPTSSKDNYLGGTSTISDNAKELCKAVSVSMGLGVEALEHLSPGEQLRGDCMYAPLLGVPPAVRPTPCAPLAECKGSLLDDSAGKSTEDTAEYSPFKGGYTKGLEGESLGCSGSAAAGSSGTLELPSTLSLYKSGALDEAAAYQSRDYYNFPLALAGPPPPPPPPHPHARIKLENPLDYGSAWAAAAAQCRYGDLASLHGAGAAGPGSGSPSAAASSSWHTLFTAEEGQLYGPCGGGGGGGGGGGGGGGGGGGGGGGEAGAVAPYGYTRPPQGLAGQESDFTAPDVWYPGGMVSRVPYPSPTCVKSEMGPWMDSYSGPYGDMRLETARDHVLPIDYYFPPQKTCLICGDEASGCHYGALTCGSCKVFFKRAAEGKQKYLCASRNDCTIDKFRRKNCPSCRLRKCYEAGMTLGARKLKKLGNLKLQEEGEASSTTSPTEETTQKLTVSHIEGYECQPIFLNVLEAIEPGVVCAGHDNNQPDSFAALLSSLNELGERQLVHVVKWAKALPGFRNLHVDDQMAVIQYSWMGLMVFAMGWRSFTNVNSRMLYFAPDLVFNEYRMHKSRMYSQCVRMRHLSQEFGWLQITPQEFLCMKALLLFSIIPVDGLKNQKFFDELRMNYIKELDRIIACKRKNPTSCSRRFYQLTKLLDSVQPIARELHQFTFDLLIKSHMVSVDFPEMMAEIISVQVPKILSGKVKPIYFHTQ
Sequence (Q96SW2 whole entry, looked up, change not shown): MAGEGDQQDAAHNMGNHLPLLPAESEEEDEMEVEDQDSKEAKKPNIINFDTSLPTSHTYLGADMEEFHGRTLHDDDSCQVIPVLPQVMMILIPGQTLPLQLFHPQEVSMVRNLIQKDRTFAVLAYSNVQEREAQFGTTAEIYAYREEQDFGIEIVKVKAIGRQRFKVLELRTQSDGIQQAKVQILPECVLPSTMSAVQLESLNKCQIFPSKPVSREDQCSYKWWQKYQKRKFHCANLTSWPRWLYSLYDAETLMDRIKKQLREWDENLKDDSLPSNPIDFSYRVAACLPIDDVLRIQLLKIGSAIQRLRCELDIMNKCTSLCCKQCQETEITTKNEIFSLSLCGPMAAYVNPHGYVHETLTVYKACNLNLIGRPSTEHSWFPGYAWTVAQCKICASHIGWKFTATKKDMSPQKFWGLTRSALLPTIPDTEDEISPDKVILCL

SMILES	Activity [%]
CC(C)(c1ccc(OCC(=O)NC2CCN(c3cccc4c3C(=O)N(C3CCC(=O)NC3=O)C4=O)CC2)cc1)c1ccc(OCc2cccc(N3CCOCC3)n2)cc1 (stereo not drawn)	48.7
CC(C)(c1ccc(OCCCCCCNc2cccc3c2C(=O)N(C2CCC(=O)NC2=O)C3=O)cc1)c1ccc(OCC(O)CCl)cc1 (stereo not drawn)	93
CC(C)(c1ccc(OCc2cccc(N3CCOCC3)n2)cc1)c1ccc(OCC2CCN(c3cccc4c3C(=O)N(C3CCC(=O)NC3=O)C4=O)CC2)cc1 (stereo not drawn)	< 10
CC(C)(c1ccc(OCCCCCCNc2ccc3c(c2)C(=O)N(C2CCC(=O)NC2=O)C3=O)cc1)c1ccc(OCC(O)CCl)cc1 (stereo not drawn)	21.2
CC(C)(c1ccc(OCC(=O)NCCOCCOCCOCCNc2cccc3c2C(=O)N(C2CCC(=O)NC2=O)C3=O)cc1)c1ccc(OCc2cccc(N3CCOCC3)n2)cc1 (stereo not drawn)	40
CC(C)(c1ccc(OCC(=O)NCCCCNc2ccc3c(c2)C(=O)N(C2CCC(=O)NC2=O)C3=O)cc1)c1ccc(OCC(O)CCl)cc1 (stereo not drawn)	< 10
CC(C)(c1ccc(OCCCCNc2cccc3c2C(=O)N(C2CCC(=O)NC2=O)C3=O)cc1)c1ccc(OCC(O)CCl)cc1 (stereo not drawn)	89.3
CC(C)(c1ccc(OCCCCNc2ccc3c(c2)C(=O)N(C2CCC(=O)NC2=O)C3=O)cc1)c1ccc(OCC(O)CCl)cc1 (stereo not drawn)	23.6
CC(C)(c1ccc(OCC(=O)NC2CN(c3cccc4c3C(=O)N(C3CCC(=O)NC3=O)C4=O)C2)cc1)c1ccc(OCC(O)CCl)cc1 (stereo not drawn)	88.2
CC(C)(c1ccc(OCC(=O)NCCCNc2cccc3c2C(=O)N(C2CCC(=O)NC2=O)C3=O)cc1)c1ccc(OCC(O)CCl)cc1 (stereo not drawn)	93.6
CC(C)(c1ccc(OC[C@H](O)CO)cc1)c1ccc(OC[C@H](O)CCl)cc1	< 10

tested on: Protein cereblon/Androgen receptor (Homo sapiens), P10275+Q96SW2 [UNDEFINED MUTATION]; assay: PROTAC activity at AR-V7/CRBN in human 22Rv1 cells assessed as induction of AR-V7 degradation at 1 uM incubated for 24 hrs by Western blot analysis relative to control; assay type: cell-based; settings: CWR22R

SMILES	Activity [%]
CC(C)(c1ccc(OCC(=O)NC2CCN(c3cccc4c3C(=O)N(C3CCC(=O)NC3=O)C4=O)CC2)cc1)c1ccc(OCc2cccc(N3CCOCC3)n2)cc1 (stereo not drawn)	< 10
CC(C)(c1ccc(OCCCCCCNc2cccc3c2C(=O)N(C2CCC(=O)NC2=O)C3=O)cc1)c1ccc(OCC(O)CCl)cc1 (stereo not drawn)	79.5
CC(C)(c1ccc(OCc2cccc(N3CCOCC3)n2)cc1)c1ccc(OCC2CCN(c3cccc4c3C(=O)N(C3CCC(=O)NC3=O)C4=O)CC2)cc1 (stereo not drawn)	< 10
CC(C)(c1ccc(OCCCCCCNc2ccc3c(c2)C(=O)N(C2CCC(=O)NC2=O)C3=O)cc1)c1ccc(OCC(O)CCl)cc1 (stereo not drawn)	74.7
CC(C)(c1ccc(OCC(=O)NCCOCCOCCOCCNc2cccc3c2C(=O)N(C2CCC(=O)NC2=O)C3=O)cc1)c1ccc(OCc2cccc(N3CCOCC3)n2)cc1 (stereo not drawn)	< 10
CC(C)(c1ccc(OCC(=O)NCCCCNc2ccc3c(c2)C(=O)N(C2CCC(=O)NC2=O)C3=O)cc1)c1ccc(OCC(O)CCl)cc1 (stereo not drawn)	< 10
CC(C)(c1ccc(OCCCCNc2cccc3c2C(=O)N(C2CCC(=O)NC2=O)C3=O)cc1)c1ccc(OCC(O)CCl)cc1 (stereo not drawn)	78.1
CC(C)(c1ccc(OCCCCNc2ccc3c(c2)C(=O)N(C2CCC(=O)NC2=O)C3=O)cc1)c1ccc(OCC(O)CCl)cc1 (stereo not drawn)	55.1
CC(C)(c1ccc(OCC(=O)NC2CN(c3cccc4c3C(=O)N(C3CCC(=O)NC3=O)C4=O)C2)cc1)c1ccc(OCC(O)CCl)cc1 (stereo not drawn)	67.7
CC(C)(c1ccc(OCC(=O)NCCCNc2cccc3c2C(=O)N(C2CCC(=O)NC2=O)C3=O)cc1)c1ccc(OCC(O)CCl)cc1 (stereo not drawn)	80.1
CC(C)(c1ccc(OC[C@H](O)CO)cc1)c1ccc(OC[C@H](O)CCl)cc1	< 10

tested on: CWR22R; assay: Induction of apoptosis in human 22Rv1 cells assessed as early apoptotic cells at 100 nM incubated for 48 hrs by Annexin V/FITC staining based flow cytometry analysis (reference value: 2.08 %); assay type: functional; settings: not given

SMILES	Activity [%]
CC(C)(c1ccc(OC[C@H](O)CO)cc1)c1ccc(OC[C@H](O)CCl)cc1	13.9

tested on: CWR22R; assay: Induction of cell cycle arrest in human 22Rv1 cells assessed as accumulation of cells at S phase at 100 nM incubated for 24 hrs by PI staining based flow cytometry analysis (reference value: 28.73%); assay type: functional; settings: not given

SMILES	Activity [%]
CC(C)(c1ccc(OC[C@H](O)CO)cc1)c1ccc(OC[C@H](O)CCl)cc1	38.87

tested on: CWR22R; assay: Induction of cell cycle arrest in human 22Rv1 cells assessed as accumulation of cells at G0/G1 phase at 100 nM incubated for 24 hrs by PI staining based flow cytometry analysis (reference value: 62.66%); assay type: functional; settings: not given

SMILES	Activity [%]
CC(C)(c1ccc(OC[C@H](O)CO)cc1)c1ccc(OC[C@H](O)CCl)cc1	50.06

tested on: CWR22R; assay: Induction of apoptosis in human 22Rv1 cells assessed as necrotic cells at 100 nM incubated for 48 hrs by Annexin V/FITC staining based flow cytometry analysis (reference value: 2.31 %); assay type: functional; settings: not given

SMILES	Activity [%]
CC(C)(c1ccc(OC[C@H](O)CO)cc1)c1ccc(OC[C@H](O)CCl)cc1	0.78

tested on: CWR22R; assay: Antiproliferative activity against human 22Rv1 cells incubated for 4 days by CCK-8 assay; assay type: functional, cell-based; settings: 22Rv1, 96 h

SMILES	IC50 [µM]
CC(C)(c1ccc(OCC(=O)NC2CCN(c3cccc4c3C(=O)N(C3CCC(=O)NC3=O)C4=O)CC2)cc1)c1ccc(OCc2cccc(N3CCOCC3)n2)cc1 (stereo not drawn)	> 20
CC(C)(c1ccc(OCCCCCCNc2cccc3c2C(=O)N(C2CCC(=O)NC2=O)C3=O)cc1)c1ccc(OCC(O)CCl)cc1 (stereo not drawn)	6.45
CC(C)(c1ccc(OCc2cccc(N3CCOCC3)n2)cc1)c1ccc(OCC2CCN(c3cccc4c3C(=O)N(C3CCC(=O)NC3=O)C4=O)CC2)cc1 (stereo not drawn)	> 20
CC(C)(c1ccc(OCCCCCCNc2ccc3c(c2)C(=O)N(C2CCC(=O)NC2=O)C3=O)cc1)c1ccc(OCC(O)CCl)cc1 (stereo not drawn)	2.17
CC(C)(c1ccc(OCC(=O)NCCOCCOCCOCCNc2cccc3c2C(=O)N(C2CCC(=O)NC2=O)C3=O)cc1)c1ccc(OCc2cccc(N3CCOCC3)n2)cc1 (stereo not drawn)	11.2
CC(C)(c1ccc(OCC(=O)NCCCCNc2ccc3c(c2)C(=O)N(C2CCC(=O)NC2=O)C3=O)cc1)c1ccc(OCC(O)CCl)cc1 (stereo not drawn)	> 20
CC(C)(c1ccc(OCCCCNc2cccc3c2C(=O)N(C2CCC(=O)NC2=O)C3=O)cc1)c1ccc(OCC(O)CCl)cc1 (stereo not drawn)	9.05
CC(C)(c1ccc(OCCCCNc2ccc3c(c2)C(=O)N(C2CCC(=O)NC2=O)C3=O)cc1)c1ccc(OCC(O)CCl)cc1 (stereo not drawn)	3.11
CC(C)(c1ccc(OCC(=O)NC2CN(c3cccc4c3C(=O)N(C3CCC(=O)NC3=O)C4=O)C2)cc1)c1ccc(OCC(O)CCl)cc1 (stereo not drawn)	1.17
CC(C)(c1ccc(OCC(=O)NCCCNc2cccc3c2C(=O)N(C2CCC(=O)NC2=O)C3=O)cc1)c1ccc(OCC(O)CCl)cc1 (stereo not drawn)	1.11
CC(C)(c1ccc(OC[C@H](O)CO)cc1)c1ccc(OC[C@H](O)CCl)cc1	> 20

tested on: CWR22R; assay: Inhibition of colony formation in human 22Rv1 cells assessed as reduction in colony formation incubated for 14 days; assay type: functional, cell-based; settings: dose 1-100 nM, time 14.0 day

SMILES	inhibition
CC(C)(c1ccc(OC[C@H](O)CO)cc1)c1ccc(OC[C@H](O)CCl)cc1	Weak_effect

target: T1, Protein cereblon/Androgen receptor (Homo sapiens, UniProt P10275+Q96SW2); assay: PROTAC activity at full length Androgen receptor/CRBN in human 22Rv1 cells assessed as induction of full length Androgen receptor degradation at 5 uM incubated for 24 hrs by Western blot analysis relative to control; assay type: cell-based; settings: not given
T1 sequence (P10275 whole entry, looked up): as the sequence (P10275 whole entry, looked up, change not shown) above
T1 sequence (Q96SW2 whole entry, looked up): as the sequence (Q96SW2 whole entry, looked up, change not shown) above

SMILES	Activity [%]
CC(C)(c1ccc(OCC(=O)NC2CCN(c3cccc4c3C(=O)N(C3CCC(=O)NC3=O)C4=O)CC2)cc1)c1ccc(OCc2cccc(N3CCOCC3)n2)cc1 (stereo not drawn)	28.3
CC(C)(c1ccc(OCCCCCCNc2cccc3c2C(=O)N(C2CCC(=O)NC2=O)C3=O)cc1)c1ccc(OCC(O)CCl)cc1 (stereo not drawn)	< 10
CC(C)(c1ccc(OCc2cccc(N3CCOCC3)n2)cc1)c1ccc(OCC2CCN(c3cccc4c3C(=O)N(C3CCC(=O)NC3=O)C4=O)CC2)cc1 (stereo not drawn)	< 10
CC(C)(c1ccc(OCCCCCCNc2ccc3c(c2)C(=O)N(C2CCC(=O)NC2=O)C3=O)cc1)c1ccc(OCC(O)CCl)cc1 (stereo not drawn)	< 10
CC(C)(c1ccc(OCC(=O)NCCOCCOCCOCCNc2cccc3c2C(=O)N(C2CCC(=O)NC2=O)C3=O)cc1)c1ccc(OCc2cccc(N3CCOCC3)n2)cc1 (stereo not drawn)	83.5
CC(C)(c1ccc(OCC(=O)NCCCCNc2ccc3c(c2)C(=O)N(C2CCC(=O)NC2=O)C3=O)cc1)c1ccc(OCC(O)CCl)cc1 (stereo not drawn)	< 10
CC(C)(c1ccc(OCCCCNc2cccc3c2C(=O)N(C2CCC(=O)NC2=O)C3=O)cc1)c1ccc(OCC(O)CCl)cc1 (stereo not drawn)	31.3
CC(C)(c1ccc(OCCCCNc2ccc3c(c2)C(=O)N(C2CCC(=O)NC2=O)C3=O)cc1)c1ccc(OCC(O)CCl)cc1 (stereo not drawn)	81.1
CC(C)(c1ccc(OCC(=O)NC2CN(c3cccc4c3C(=O)N(C3CCC(=O)NC3=O)C4=O)C2)cc1)c1ccc(OCC(O)CCl)cc1 (stereo not drawn)	89
CC(C)(c1ccc(OCC(=O)NCCCNc2cccc3c2C(=O)N(C2CCC(=O)NC2=O)C3=O)cc1)c1ccc(OCC(O)CCl)cc1 (stereo not drawn)	91.1
CC(C)(c1ccc(OC[C@H](O)CO)cc1)c1ccc(OC[C@H](O)CCl)cc1	< 10

tested on: CWR22R; assay: Induction of apoptosis in human 22Rv1 cells assessed as viable cells at 100 nM incubated for 48 hrs by Annexin V/FITC staining based flow cytometry analysis (reference value: 94.49%); assay type: functional; settings: read-out: Activity

SMILES	viability at 0.1 µM [%]
CC(C)(c1ccc(OC[C@H](O)CO)cc1)c1ccc(OC[C@H](O)CCl)cc1	80.7

tested on: CWR22R; assay: Induction of cell cycle arrest in human 22Rv1 cells assessed as accumulation of cells at G2/M phase at 100 nM incubated for 24 hrs by PI staining based flow cytometry analysis (reference value: 8.61%); assay type: functional; settings: not given

SMILES	Activity [%]
CC(C)(c1ccc(OC[C@H](O)CO)cc1)c1ccc(OC[C@H](O)CCl)cc1	11.07

tested on: CWR22R; assay: Induction of apoptosis in human 22Rv1 cells assessed as late apoptotic cells at 100 nM incubated for 48 hrs by Annexin V/FITC staining based flow cytometry analysis (reference value: 1.12 %); assay type: functional; settings: not given

SMILES	Activity [%]
CC(C)(c1ccc(OC[C@H](O)CO)cc1)c1ccc(OC[C@H](O)CCl)cc1	4.6

target: T1, Protein cereblon/Androgen receptor; assay: PROTAC activity at full length Androgen receptor/CRBN in human 22Rv1 cells assessed as induction of full length Androgen receptor degradation at 1 uM incubated for 24 hrs by Western blot analysis relative to control; assay type: cell-based; settings: not given

SMILES	Activity [%]
CC(C)(c1ccc(OCC(=O)NC2CCN(c3cccc4c3C(=O)N(C3CCC(=O)NC3=O)C4=O)CC2)cc1)c1ccc(OCc2cccc(N3CCOCC3)n2)cc1 (stereo not drawn)	< 10
CC(C)(c1ccc(OCCCCCCNc2cccc3c2C(=O)N(C2CCC(=O)NC2=O)C3=O)cc1)c1ccc(OCC(O)CCl)cc1 (stereo not drawn)	16.7
CC(C)(c1ccc(OCc2cccc(N3CCOCC3)n2)cc1)c1ccc(OCC2CCN(c3cccc4c3C(=O)N(C3CCC(=O)NC3=O)C4=O)CC2)cc1 (stereo not drawn)	< 10
CC(C)(c1ccc(OCCCCCCNc2ccc3c(c2)C(=O)N(C2CCC(=O)NC2=O)C3=O)cc1)c1ccc(OCC(O)CCl)cc1 (stereo not drawn)	90
CC(C)(c1ccc(OCC(=O)NCCOCCOCCOCCNc2cccc3c2C(=O)N(C2CCC(=O)NC2=O)C3=O)cc1)c1ccc(OCc2cccc(N3CCOCC3)n2)cc1 (stereo not drawn)	42.5
CC(C)(c1ccc(OCC(=O)NCCCCNc2ccc3c(c2)C(=O)N(C2CCC(=O)NC2=O)C3=O)cc1)c1ccc(OCC(O)CCl)cc1 (stereo not drawn)	< 10
CC(C)(c1ccc(OCCCCNc2cccc3c2C(=O)N(C2CCC(=O)NC2=O)C3=O)cc1)c1ccc(OCC(O)CCl)cc1 (stereo not drawn)	< 10
CC(C)(c1ccc(OCCCCNc2ccc3c(c2)C(=O)N(C2CCC(=O)NC2=O)C3=O)cc1)c1ccc(OCC(O)CCl)cc1 (stereo not drawn)	88.1
CC(C)(c1ccc(OCC(=O)NC2CN(c3cccc4c3C(=O)N(C3CCC(=O)NC3=O)C4=O)C2)cc1)c1ccc(OCC(O)CCl)cc1 (stereo not drawn)	80.1
CC(C)(c1ccc(OCC(=O)NCCCNc2cccc3c2C(=O)N(C2CCC(=O)NC2=O)C3=O)cc1)c1ccc(OCC(O)CCl)cc1 (stereo not drawn)	88.1
CC(C)(c1ccc(OC[C@H](O)CO)cc1)c1ccc(OC[C@H](O)CCl)cc1	< 10

Source: ChEMBL document CHEMBL6153032, “Discovery of a highly potent, N-terminal domain-targeting degrader of AR-FL/AR-V7 for the treatment of prostate cancer” (Eur J Med Chem, 2025)
